One assay has as its target Bcl-xL (Homo sapiens (Human), UniProt Q07817). Put plainly: Bcl-xL/Bim Fluorescence Resonance Energy Transfer Assay (FRET). Format: binding. As to the method:
Bcl-xL/Bim Fluorescence Resonance Energy Transfer Assay (FRET) The assays were performed in black flat-bottom 384-well plates. The final assay volume was 55 μl prepared from additions of Biotin-Bcl-xL (Bcl-xL: GENBANK® Accession No. […] The reaction was incubated at room temperature for 60 minutes. After 60 minutes, 5 μL of Streptavidin-Terbium FRET detection reagent (Perkin Elmer) was added to the reaction mixture and incubated at room temperature in the dark for 30 mins. […] Compounds were dissolved at 10 mM in dimethylsulfoxide (DMSO) and evaluated at eleven concentrations. IC50 values were derived by non-linear regression analysis.

For the next assay, the target named is Bcl-2 (Homo sapiens (Human), UniProt P10415). Put plainly: Bcl-2/Bim Fluorescence Polarization Assay (FPA). Format: binding. As to the method:
Bcl-2/Bim Fluorescence Polarization Assay (FPA)
The assays were performed in black flat-bottom 384-well plates. […] The reaction was incubated at room temperature for 60 minutes and fluorescence polarization of the reaction was detected on the LJL Plate Reader. Inhibition data were calculated from mP values generated by the no protein control reactions for 100% inhibition and vehicle-only reactions for 0% inhibition. The final concentrations of reagents in the assay were 4.9 nM BCL-2, 5 nM fluoresceinated 18-mer BIM peptide and 1% DMSO. […] Compounds were dissolved at 10 mM in dimethylsulfoxide (DMSO) and evaluated at eleven concentrations. IC50 values were derived by non-linear regression analysis.
A general note: Polarisation of emitted light reports the rotation of a fluorescent probe.

SMILES strings stand for the structures.

Bcl-xL, sequence (Q07817 whole entry): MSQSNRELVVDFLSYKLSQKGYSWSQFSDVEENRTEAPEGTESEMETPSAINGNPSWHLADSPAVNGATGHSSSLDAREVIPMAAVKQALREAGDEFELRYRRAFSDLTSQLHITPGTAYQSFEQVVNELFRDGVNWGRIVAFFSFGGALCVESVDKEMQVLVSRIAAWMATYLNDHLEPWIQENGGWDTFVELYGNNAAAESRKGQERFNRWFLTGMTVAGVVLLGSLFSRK
Bcl-2, sequence (P10415 whole entry): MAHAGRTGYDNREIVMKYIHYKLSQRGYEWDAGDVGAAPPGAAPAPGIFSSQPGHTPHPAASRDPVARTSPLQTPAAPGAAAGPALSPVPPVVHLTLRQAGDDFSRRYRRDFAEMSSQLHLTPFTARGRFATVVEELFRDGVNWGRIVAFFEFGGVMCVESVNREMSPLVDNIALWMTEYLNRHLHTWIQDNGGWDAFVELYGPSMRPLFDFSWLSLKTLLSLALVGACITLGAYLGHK

A word on the IC50: it is the concentration that inhibits the measured activity by half. A high value points to lower potency. For the compound `CCCCN(CCCC)C(=O)c1nn(-c2ccc(C(=O)NS(=O)(=O)c3ccc4c(ccn4Cc4ccc(Cl)c(Cl)c4)c3)cc2C(=O)N2CCc3ccccc3C2)c(C)c1Cl` [Example 68, N,N-dibutyl-4-chloro-1-(4-(1-(3,4-dichlorobenzyl)-1H-indol-5-ylsulfonylcarbamoyl)-2-(1,2,3,4-tetrahydroisoquinoline-2-carbonyl)phenyl)-5-methyl-1H-pyrazole-3-carboxamide], the 50% inhibitory concentration (IC50) on Bcl-xL is 0.11 µM; on Bcl-2, 0.05 µM. For the compound `Cc1c(Cl)c(C(=O)N(CCC(F)(F)F)CCC(F)(F)F)nn1-c1ccc(C(=O)NS(=O)(=O)c2ccc3ccccc3c2)cc1C(=O)N1CCc2ccccc2C1` [Example 130, 4-chloro-5-methyl-1-(4-(naphthalen-2-ylsulfonylcarbamoyl)-2-(1,2,3,4-tetrahydroisoquinoline-2-carbonyl)phenyl)-N,N-bis(3,3,3-trifluoropropyl)-1H-pyrazole-3-carboxamide], the IC50 at Bcl-xL is 0.03 µM; at Bcl-2, 0.08 µM. Turning to `CCCCN(CCCC)C(=O)c1nn(-c2ccc(C(=O)NS(=O)(=O)c3ccc4ccc(C(=O)N(C)C)cc4c3)cc2C(=O)N2CCc3ccccc3C2)c(C)c1Cl` [Example 48, N,N-Dibutyl-4-chloro-1-(4-(7-(dimethylcarbamoyl)naphthalen-2-ylsulfonylcarbamoyl)-2-(1,2,3,4-tetrahydroisoquinoline-2-carbonyl)phenyl)-5-methyl-1H-pyrazole-3-carboxamide], the IC50 at Bcl-xL is 0.08 µM; at Bcl-2 it was 0.15 µM. Turning to `CCCCN(CCCC)C(=O)c1nn(-c2ccc(C(=O)NS(=O)(=O)c3ccc4c(ccn4CCCN4CCOCC4)c3)cc2C(=O)N2CCc3ccccc3C2)c(C)c1Cl` [Example 82, N,N-dibutyl-4-chloro-5-methyl-1-(4-(1-(3-morpholinopropyl)-1H-indol-5-ylsulfonylcarbamoyl)-2-(1,2,3,4-tetrahydroisoquinoline-2-carbonyl)phenyl)-1H-pyrazole-3-carboxamide], the IC50 was 0.03 µM at Bcl-xL and 0.39 µM at Bcl-2. With `CCCCc1c(-c2ccc(C(=O)NS(=O)(=O)c3ccc4ccccc4c3)cc2C(=O)N2CCc3ccccc3C2)c(CO)nn1-c1ccc(Oc2cccc(Cl)c2)cc1` [Example 243, 4-(5-butyl-1-(4-(3-chlorophenoxy)phenyl)-3-(hydroxymethyl)-1H-pyrazol-4-yl)-N-(naphthalen-2-ylsulfonyl)-3-(1,2,3,4-tetrahydroisoquinoline-2-carbonyl)benzamide], the IC50 on Bcl-xL worked out at 0.02 µM; at Bcl-2, 0.00783 µM. For the compound `CCCCN(Cc1ccc(Cl)c(Cl)c1)C(=O)c1nn(-c2ccc(C(=O)NS(=O)(=O)c3ccc4cccc(Cl)c4c3)cc2C(=O)N2Cc3ccccc3C[C@H]2CO)c(C)c1Cl` [Example 181, N-Butyl-4-chloro-1-(4-(8-chloronaphthalen-2-ylsulfonylcarbamoyl)-2-((S)-3-(hydroxymethyl)-1,2,3,4-tetrahydroisoquinoline-2-carbonyl)phenyl)-N-(3,4-dichlorobenzyl)-5-methyl-1H-pyrazole-3-carboxamide], the IC50 on Bcl-xL came out at 0.05 µM; against Bcl-2, 0.00849 µM. In the same order, the values of `CCCCN(CCCC)C(=O)c1nn(-c2ccc(C(=O)NS(=O)(=O)c3ccc4ccccc4c3)cc2C(=O)N2Cc3ccccc3C[C@H]2COCCO)c(C)c1Cl` [Example 119, N,N-Dibutyl-4-chloro-1-(2-((S)-3-((2-hydroxyethoxy)methyl)-1,2,3,4-tetrahydroisoquinoline-2-carbonyl)-4-(naphthalen-2-ylsulfonylcarbamoyl)phenyl)-5-methyl-1H-pyrazole-3-carboxamide] are 0.01 µM and 0.05 µM. In the same order, the values of `CCCCN(CCCC)C(=O)c1cn(CC(=O)O)c(-c2ccc(C(=O)NS(=O)(=O)c3cccc4ccccc34)cc2C(=O)N2CCc3ccccc3C2)n1` [Example 269, 2-(4-(Dibutylcarbamoyl)-2-(4-(naphthalen-1-ylsulfonylcarbamoyl)-2-(1,2,3,4-tetrahydroisoquinoline-2-carbonyl)phenyl)-1H-imidazol-1-yl)acetic acid] are 0.03 µM and 0.14 µM.

For `CCCCc1c(-c2ccc(C(=O)NS(=O)(=O)c3ccc4ccccc4c3)cc2C(=O)N2CCc3ccccc3C2)c(CO)nn1-c1ccc(Oc2ccc(Cl)cc2)cc1` [Example 242, 4-(5-butyl-1-(4-(4-chlorophenoxy)phenyl)-3-(hydroxymethyl)-1H-pyrazol-4-yl)-N-(naphthalen-2-ylsulfonyl)-3-(1,2,3,4-tetrahydroisoquinoline-2-carbonyl)benzamide], the figures for the IC50 against Bcl-xL and at Bcl-2 were 0.04 µM and 0.02 µM, respectively. In the same order, the values of `CCCCN(CCCC(F)(F)F)C(=O)c1nn(-c2ccc(C(=O)NS(=O)(=O)c3ccc4ccccc4c3)cc2C(=O)N2CCc3ccccc3C2)c(C)c1Cl` [Example 128, N-butyl-4-chloro-5-methyl-1-(4-(naphthalen-2-ylsulfonylcarbamoyl)-2-(1,2,3,4-tetrahydroisoquinoline-2-carbonyl)phenyl)-N-(4,4,4-trifluorobutyl)-1H-pyrazole-3-carboxamide] are 0.08 µM and 0.11 µM. The corresponding values for `CCCCN(CCCC)C(=O)c1nn(-c2ccc(C(=O)NS(=O)(=O)c3ccc4c(c3)CCN4Cc3ccc(Cl)c(Cl)c3)cc2C(=O)N2CCc3ccccc3C2)c(C)c1Cl` [Example 59, N,N-dibutyl-4-chloro-1-(4-(1-(3,4-dichlorobenzyl)indolin-5-ylsulfonylcarbamoyl)-2-(1,2,3,4-tetrahydroisoquinoline-2-carbonyl)phenyl)-5-methyl-1H-pyrazole-3-carboxamide] are 0.04 µM and 0.02 µM. In the same order, the values of `CCCCN(CCCC)C(=O)c1nn(-c2ccc(C(=O)NS(=O)(=O)c3ccc4ccc(OC(C)C)cc4c3)cc2C(=O)N2CCc3ccccc3C2)c(C)c1Cl` [Example 24, N,N-dibutyl-4-chloro-1-(4-(7-isopropoxynaphthalen-2-ylsulfonylcarbamoyl)-2-(1,2,3,4-tetrahydroisoquinoline-2-carbonyl)phenyl)-5-methyl-1H-pyrazole-3-carboxamide] are 0.02 µM and 0.05 µM. Take `CCCCN(CCC(=O)NCCN1CCN(C)CC1)C(=O)c1nn(-c2ccc(C(=O)NS(=O)(=O)c3ccc4c(c3)CCN4Cc3ccc(Cl)c(Cl)c3)cc2C(=O)N2CCc3ccccc3C2)c(C)c1Cl` [Example 200, N-butyl-4-chloro-1-(4-(1-(3,4-dichlorobenzyl)indolin-5-ylsulfonylcarbamoyl)-2-(1,2,3,4-tetrahydroisoquinoline-2-carbonyl)phenyl)-5-methyl-N-(3-(2-(4-methylpiperazin-1-yl)ethylamino)-3-oxopropyl)-1H-pyrazole-3-carboxamide]: the IC50 was 0.13 µM on Bcl-xL and 1.01 µM against Bcl-2. Turning to `CCCCN(CCCC)C(=O)c1nn(-c2ccc(C(=O)NS(=O)(=O)c3ccc4ccc(OCCCN5CCCC5)cc4c3)cc2C(=O)N2CCc3ccccc3C2)c(C)c1Cl` [Example 40, N,N-dibutyl-4-chloro-5-methyl-1-(4-(7-(3-(pyrrolidin-1-yl)propoxy)naphthalen-2-ylsulfonylcarbamoyl)-2-(1,2,3,4-tetrahydroisoquinoline-2-carbonyl)phenyl)-1H-pyrazole-3-carboxamide], the values for the IC50 against Bcl-xL and against Bcl-2 were 0.03 µM and 3.78 µM, respectively. For `CCCCN(CCCC)C(=O)c1nn(-c2ccc(C(=O)NS(=O)(=O)c3ccc4ccc(I)cc4c3)cc2C(=O)N2CCc3ccccc3C2)c(C)c1Cl` [Example 11, N,N-dibutyl-4-chloro-1-(4-(7-iodonaphthalen-2-ylsulfonylcarbamoyl)-2-(1,2,3,4-tetrahydroisoquinoline-2-carbonyl)phenyl)-5-methyl-1H-pyrazole-3-carboxamide], at Bcl-xL, the concentration for half-maximal inhibition (IC50) turned out to be 0.05 µM. In other words, the double-digit nanomolar range.

For the compound `CCCCN(CCCC)C(=O)c1nn(-c2ccc(C(=O)NS(=O)(=O)c3ccc4ccccc4c3)cc2C(=O)N2Cc3ccccc3C[C@H]2CNC2CCN(C)CC2)c(C)c1Cl` [Example 106, N,N-Dibutyl-4-chloro-5-methyl-1-(2-((S)-3-((1-methylpiperidin-4-ylamino)methyl)-1,2,3,4-tetrahydroisoquinoline-2-carbonyl)-4-(naphthalen-2-ylsulfonylcarbamoyl)phenyl)-1H-pyrazole-3-carboxamide], at Bcl-2, the IC50 was 0.02 µM. The same measure, in the same setting: for `CCCCN(CCCC)C(=O)c1nn(-c2ccc(C(=O)NS(=O)(=O)c3ccc4ccccc4c3)cc2C(=O)N2Cc3ccccc3C[C@H]2CO)c(C)c1Cl` [Example 91, N,N-Dibutyl-4-chloro-1-(2-((S)-3-(hydroxymethyl)-1,2,3,4-tetrahydroisoquinoline-2-carbonyl)-4-(naphthalen-2-ylsulfonylcarbamoyl)phenyl)-5-methyl-1H-pyrazole-3-carboxamide] the value was 0.05 µM; for `CCCCc1c(-c2ccc(C(=O)NS(=O)(=O)c3ccc4ccccc4c3)cc2C(=O)N2CCc3ccccc3C2)c(CO)nn1-c1ccc(OCC(O)CO)cc1` (racemic) [Example 258, (±)-4-(5-Butyl-1-(4-(2,3-dihydroxypropoxy)phenyl)-3-(hydroxymethyl)-1H-pyrazol-4-yl)-N-(naphthalen-2-ylsulfonyl)-3-(1,2,3,4-tetrahydroisoquinoline-2-carbonyl)benzamide], 0.00813 µM.

Source of the values: patent US9346795B2, “Substituted sulfonamides useful as antiapoptotic Bcl inhibitors” (Bristol-Myers Squibb Company, priority 2011, dated 2016).
